Laboratory results taken from the NIST ThermoML archive (doi:10.1016/j.jct.2016.01.021).

Test: xn = mol fraction of the nth substance listed
Conditions: 100 kPa, Liquid; for viscosity: Capillary tube (Ostwald / Ubbelohde) method; for mass density: Vibrating tube method

CCCCCCCC(=O)OCC [ethyl octanoate] + CCCCCCCCCCCCCCCC
Conditions | mass density [kg/m3] | viscosity [mPa·s]
298.15 K, x2 = 0 | 862.64 | 1.428
298.15 K, x2 = 0.1 | 848.72 | 1.539
298.15 K, x2 = 0.2 | 836.2 | 1.651
298.15 K, x2 = 0.3 | 824.94 | 1.776
298.15 K, x2 = 0.4 | 814.77 | 1.916
298.15 K, x2 = 0.4999 | 805.52 | 2.065
298.15 K, x2 = 0.6 | 797.09 | 2.229
298.15 K, x2 = 0.7 | 789.38 | 2.408
298.15 K, x2 = 0.8 | 782.33 | 2.608
298.15 K, x2 = 0.9 | 775.88 | 2.84
303.15 K, x2 = 0 | 858.34 | 1.313
303.15 K, x2 = 0.1 | 844.55 | 1.407
303.15 K, x2 = 0.2 | 832.14 | 1.513
303.15 K, x2 = 0.3 | 820.97 | 1.623
303.15 K, x2 = 0.4 | 810.9 | 1.744
303.15 K, x2 = 0.4999 | 801.74 | 1.875
303.15 K, x2 = 0.6 | 793.39 | 2.019
303.15 K, x2 = 0.7 | 785.75 | 2.175
303.15 K, x2 = 0.8 | 778.76 | 2.348
303.15 K, x2 = 0.9 | 772.36 | 2.543
308.15 K, x2 = 0 | 854.04 | 1.211
308.15 K, x2 = 0.1 | 840.37 | 1.296
308.15 K, x2 = 0.2 | 828.07 | 1.387
308.15 K, x2 = 0.3 | 817.01 | 1.49
308.15 K, x2 = 0.4 | 807.03 | 1.596
308.15 K, x2 = 0.4999 | 797.95 | 1.712
308.15 K, x2 = 0.6 | 789.68 | 1.837
308.15 K, x2 = 0.7 | 782.11 | 1.974
308.15 K, x2 = 0.8 | 775.18 | 2.124
308.15 K, x2 = 0.9 | 768.84 | 2.291
313.15 K, x2 = 0 | 849.72 | 1.121
313.15 K, x2 = 0.1 | 836.18 | 1.197
313.15 K, x2 = 0.2 | 824 | 1.279
313.15 K, x2 = 0.3 | 813.04 | 1.371
313.15 K, x2 = 0.4 | 803.16 | 1.467
313.15 K, x2 = 0.4999 | 794.16 | 1.57
313.15 K, x2 = 0.6 | 785.97 | 1.68
313.15 K, x2 = 0.7 | 778.47 | 1.801
313.15 K, x2 = 0.8 | 771.61 | 1.933
313.15 K, x2 = 0.9 | 765.33 | 2.083
318.15 K, x2 = 0 | 845.39 | 1.042
318.15 K, x2 = 0.1 | 831.98 | 1.11
318.15 K, x2 = 0.2 | 819.92 | 1.185
318.15 K, x2 = 0.3 | 809.06 | 1.267
318.15 K, x2 = 0.4 | 799.27 | 1.351
318.15 K, x2 = 0.4999 | 790.37 | 1.444
318.15 K, x2 = 0.6 | 782.25 | 1.543
318.15 K, x2 = 0.7 | 774.83 | 1.65
318.15 K, x2 = 0.8 | 768.04 | 1.766
318.15 K, x2 = 0.9 | 761.81 | 1.897
323.15 K, x2 = 0 | 841.06 | 0.971
323.15 K, x2 = 0.1 | 827.77 | 1.034
323.15 K, x2 = 0.2 | 815.83 | 1.101
323.15 K, x2 = 0.3 | 805.08 | 1.172
323.15 K, x2 = 0.4 | 795.39 | 1.251
323.15 K, x2 = 0.4999 | 786.56 | 1.334
323.15 K, x2 = 0.6 | 778.53 | 1.422
323.15 K, x2 = 0.7 | 771.18 | 1.517
323.15 K, x2 = 0.8 | 764.46 | 1.62
323.15 K, x2 = 0.9 | 758.3 | 1.736

CCCCCCCCCC(=O)OCC [ethyl decanoate] + CCCCCCCCCCCCCCCC
Conditions | mass density [kg/m3] | viscosity [mPa·s]
298.15 K, x2 = 0 | 860.05 | 2.115
298.15 K, x2 = 0.1 | 848.4 | 2.169
298.15 K, x2 = 0.2 | 837.44 | 2.23
298.15 K, x2 = 0.3 | 827.17 | 2.298
298.15 K, x2 = 0.4 | 817.5 | 2.374
298.15 K, x2 = 0.5 | 808.41 | 2.46
298.15 K, x2 = 0.6 | 799.81 | 2.556
298.15 K, x2 = 0.7 | 791.69 | 2.664
298.15 K, x2 = 0.8 | 783.98 | 2.785
298.15 K, x2 = 0.9 | 776.78 | 2.923
303.15 K, x2 = 0 | 855.99 | 1.919
303.15 K, x2 = 0.1 | 844.41 | 1.966
303.15 K, x2 = 0.2 | 833.53 | 2.019
303.15 K, x2 = 0.3 | 823.32 | 2.079
303.15 K, x2 = 0.4 | 813.71 | 2.144
303.15 K, x2 = 0.5 | 804.69 | 2.219
303.15 K, x2 = 0.6 | 796.15 | 2.303
303.15 K, x2 = 0.7 | 788.08 | 2.396
303.15 K, x2 = 0.8 | 780.42 | 2.501
303.15 K, x2 = 0.9 | 773.27 | 2.618
308.15 K, x2 = 0 | 851.92 | 1.75
308.15 K, x2 = 0.1 | 840.42 | 1.79
308.15 K, x2 = 0.2 | 829.61 | 1.837
308.15 K, x2 = 0.3 | 819.48 | 1.89
308.15 K, x2 = 0.4 | 809.93 | 1.948
308.15 K, x2 = 0.5 | 800.96 | 2.013
308.15 K, x2 = 0.6 | 792.49 | 2.086
308.15 K, x2 = 0.7 | 784.47 | 2.167
308.15 K, x2 = 0.8 | 776.87 | 2.257
308.15 K, x2 = 0.9 | 769.76 | 2.358
313.15 K, x2 = 0 | 847.85 | 1.603
313.15 K, x2 = 0.1 | 836.43 | 1.639
313.15 K, x2 = 0.2 | 825.69 | 1.68
313.15 K, x2 = 0.3 | 815.62 | 1.726
313.15 K, x2 = 0.4 | 806.15 | 1.777
313.15 K, x2 = 0.5 | 797.24 | 1.835
313.15 K, x2 = 0.6 | 788.82 | 1.899
313.15 K, x2 = 0.7 | 780.86 | 1.97
313.15 K, x2 = 0.8 | 773.31 | 2.049
313.15 K, x2 = 0.9 | 766.26 | 2.137
318.15 K, x2 = 0 | 843.77 | 1.474
318.15 K, x2 = 0.1 | 832.43 | 1.506
318.15 K, x2 = 0.2 | 821.76 | 1.544
318.15 K, x2 = 0.3 | 811.77 | 1.585
318.15 K, x2 = 0.4 | 802.35 | 1.63
318.15 K, x2 = 0.5 | 793.51 | 1.68
318.15 K, x2 = 0.6 | 785.15 | 1.737
318.15 K, x2 = 0.7 | 777.25 | 1.799
318.15 K, x2 = 0.8 | 769.76 | 1.869
318.15 K, x2 = 0.9 | 762.74 | 1.947
323.15 K, x2 = 0 | 839.69 | 1.362
323.15 K, x2 = 0.1 | 828.42 | 1.39
323.15 K, x2 = 0.2 | 817.83 | 1.423
323.15 K, x2 = 0.3 | 807.9 | 1.46
323.15 K, x2 = 0.4 | 798.56 | 1.501
323.15 K, x2 = 0.5 | 789.78 | 1.546
323.15 K, x2 = 0.6 | 781.48 | 1.595
323.15 K, x2 = 0.7 | 773.64 | 1.651
323.15 K, x2 = 0.8 | 766.2 | 1.712
323.15 K, x2 = 0.9 | 759.24 | 1.779
